In patent US20150315179A1, “COMPOUNDS AND METHODS OF TREATING NEUROLOGICAL DISORDERS” (Torrey Pines Institute For Molecular Studies, priority 2014, published 2015):

Assays:
[1] = tested on: sAPPα levels in conditioned medium of NT2 cells; experiment: sAPPα immunoblot, NT2 cells with or without TrkA inhibitor; format: cell-based, human; details: 24 h
Procedure: (§1) (3). THPI-244 increases TrkA receptor levels independent of protein kinase C (PKC). Next to clarify whether increased sAPPα levels depends on increased TrkA activation, NT2 cells were treated with THPI-244 with or without TrkA inhibitor (cat # GW 441756, Tocris Bioscience) at 50 nM final concentration. After 24 h, sAPPα levels were quantified from the conditioned medium by immunoblots. […] We next wanted to address whether increased TrkA protein levels by THPI-244 depends on PKC since PKC activators are well-known to induce sAPPα secretion (Etcheberringaray, R., et al., 2004, PNAS, 101, 11141-11146). NT2 cells were similarly treated with THPI-244 at 100 nM with or without PKC inhibitor (GF 109203, cat #0741, Tocris Bioscience) at 1.0 nM and TrkA protein levels were quantified by immunoblots as shown in FIG. 1.10 (right). […] Thus increased sAPPα level by THPI-244 is through upregulation of TrkA receptor independent of PKC.

human primary neurons [2] = experiment: Neurite outgrowth, Sholl analysis of dendritic intersections; format: cell-based; details: 2DIV until 6DIV
Excerpt: (4). The most important property of THPI-244 is its ability to increase neurite outgrowth and dendritic intersections in human primary neurons. Since both TrkA and sAPPα promote neuron growth and provide trophic support, we tested whether treatment of human primary neurons with THPI-244 induces neurite outgrowth. […] Considering an enormous potential for such an excellent results in human neurons, we did systematic analysis by also treating neurons in the presence of TrkA inhibitor to verify if the increased neurite outgrowth is mediated by TrkA receptor. Sholl analysis using ImageJ software of individual neurons (at least 30 per group) immunostained for MAP2 antibody confirmed our initial findings. […] This confirmed that THPI-244 increases TrkA protein levels which has vital role in regulating neuritic outgrowth.

TrkA [3] = experiment: Mouse brain lysate immunoblot, TrkA; format: in vivo; details: i.p. 100 mg/kg for 5 days, brain lysates
Procedure: FIGS. 9.2A and B illustrate that THPI-244 increases TrkA and sAPPα in the mouse brain. FIG. 9.2A illustrates that THPI-244 was administered to mice by i.p. injections at 100 mg/kg body weight for 5 days and the brain lysates were subjected to immunoblots. Specific antibodies were used to detect TrkA and sAPPα. […] Data are mean±SEM, n=3*, p<0.05, ***, p<0.001.

BBB of THPI-244 analogs = experiment: BBB of THPI-244 analogs
Excerpt: (§2) The following table illustrates Chemical structures and properties of THPI-244 analogs selected out of 37 analogs, and each have significant sAPPα increasing activity. Toxicity is the minimum dose for toxicity.

[4] = tested on: sAPPα release, fibroblasts derived from AD patients; experiment: sAPPα ELISA, AD fibroblasts; format: cell-based, human; details: 24 h
Procedure: (1). […] Therefore, we first used fibroblasts derived from AD patients (AG06263C, Coriell Cell repository, supported by NINDS/NIH) and exposed to THPI-244 for 24 h and measured sAPPα release by ELISA as done above for NT2 cells. […] We also confirmed dose-dependent effect of THPI-244 on sAPPα levels in human primary neurons transiently transfected with APP751 with Swedish mutation which is trafficked differently from WT APP and releases more sAPPα. Human neurons were grown on specially coated glass coverslips (cat # GG-18-PDL, NeuVitro, Germany). We could reproducibly achieve nearly 30% transfection efficiency using a nanoparticle based transfection reagent called Neuromag (cat # NM150299, OZ Biosciences, France).

TrkA [5] = experiment: TrkA increase by THPI-244 analogs; format: cell-based
Excerpt: as §2

human primary neurons [6] = experiment: MTT cytotoxicity, human primary neurons; format: cell-based
Excerpt: (4). Toxicity is another crucial limitation for successful drug development as evidenced by recent failure of γ-secretase inhibitors at the clinical trials due to cytotoxicity (Cole, S L and Vassar, R, 2007, Mol. Neurodeg. 2, 22-47; Doody R S, et al. 2013. N. Eng. J. Med. 369, 341-350). Therefore we measured cytotoxicity by very sensitive MTT assay as described previously (Hayes, C D., et al. 2013, BMC Medicine. 26, 11.81; 23; Hayes, C D., et al., 2012, PLoS One 7, e45841) in human primary neurons obtained from a commercial source (cat #1520, ScienCell, Carlsbad, Calif., USA) and fibroblasts derived directly from A D patients (cat# AG06263C, Coriell Institute Cell repository supported by NINDS, NIH). […] We directly used human neurons for toxicity studies so as to reduce the chances of future failure at a later stage due to toxicity.

TrkA protein levels = experiment: TrkA protein immunoblot, NT2 cells with or without PKC inhibitor; format: cell-based, human
Procedure: as §1

C57BL/6 mice = experiment: Lethal dose (LD50) study in mice; format: in vivo, mouse
Excerpt: Wild-type (WT) C57BL/6 mice aged about 6 months were used in the study. The compound THPI-244 was initially dissolved in 100% DMSO and then diluted to final 10% DMSO with phosphate buffered saline (PBS). […] Among these 6 mice, 3 mice received repeated injections (i.p) of compound THPI-244 for 5 days.

With O=C(Cc1ccccc1)N[C@H](CNc1nc(CN2CCN(C(=O)Cc3ccccc3)CC2)cs1)c1ccccc1 [THPI-244] the sAPPα levels ([1]; THPI-244 100 nM with TrkA inhibitor GW 441756 50 nM) was 132%, the sAPPα levels ([1]; THPI-244 100 nM) was 245% and the “number of dendritic intersections” value (human primary neurons [2]; Sholl analysis) was “highly significant increase”. For the same compound, the “number of dendritic intersections” value (human primary neurons [2]; THPI-244 with TrkA inhibitor) was “almost completely prevented the increased intersections”, the “increase of TrkA” value (TrkA [3]) was 78% and the “% BBB” value (BBB of THPI-244 analogs) was 0.1%. For the same compound, the “concentration from which sAPPα increase is significant” value [4] was 50 nM, the “% TrkA ↑” value (TrkA [5]) was 99% and the “concentration from which cytotoxicity is significant” value (human primary neurons [6]; MTT, 24 h exposure, human primary neurons) was 40 µM. For the same compound, the therapeutic window (human primary neurons [6]; human primary neurons and AD fibroblasts) was 800, the TrkA protein levels (TrkA protein levels; THPI-244 100 nM) was 197% and the TrkA protein levels (TrkA protein levels; THPI-244 100 nM with PKC inhibitor GF 109203 1.0 nM) was 192%. For the same compound, the death (C57BL/6 mice; 100 mg/kg i.p., 6 mice, monitored for 5 days) was “did not result in the death of any of the 6 mice”, the survival (C57BL/6 mice; 200 mg/kg, single mouse) was “survived without visible ill effects” and the lethal effect (C57BL/6 mice; repeated i.p. injections for 5 days, 3 mice) was “None of the mice showed any lethal effect”.
